Data on 1 compound can be found in ChEMBL document CHEMBL2074005, “Use of the anionic dye carboxy-2',7'-dichlorofluorescein for sensitive flow cytometric detection of multidrug resistance-associated protein activity” (Int J Oncol, 1999).

This data set concerns the target Multidrug resistance-associated protein 1 (Homo sapiens, UniProt P33527). Nature of the data set: TP_TRANSPORTER: efflux in GLC4/sb30 cells. The data set is classed as functional, cell-based.

Each structure is given as a SMILES string.

Chain of Multidrug resistance-associated protein 1 (P33527 whole entry): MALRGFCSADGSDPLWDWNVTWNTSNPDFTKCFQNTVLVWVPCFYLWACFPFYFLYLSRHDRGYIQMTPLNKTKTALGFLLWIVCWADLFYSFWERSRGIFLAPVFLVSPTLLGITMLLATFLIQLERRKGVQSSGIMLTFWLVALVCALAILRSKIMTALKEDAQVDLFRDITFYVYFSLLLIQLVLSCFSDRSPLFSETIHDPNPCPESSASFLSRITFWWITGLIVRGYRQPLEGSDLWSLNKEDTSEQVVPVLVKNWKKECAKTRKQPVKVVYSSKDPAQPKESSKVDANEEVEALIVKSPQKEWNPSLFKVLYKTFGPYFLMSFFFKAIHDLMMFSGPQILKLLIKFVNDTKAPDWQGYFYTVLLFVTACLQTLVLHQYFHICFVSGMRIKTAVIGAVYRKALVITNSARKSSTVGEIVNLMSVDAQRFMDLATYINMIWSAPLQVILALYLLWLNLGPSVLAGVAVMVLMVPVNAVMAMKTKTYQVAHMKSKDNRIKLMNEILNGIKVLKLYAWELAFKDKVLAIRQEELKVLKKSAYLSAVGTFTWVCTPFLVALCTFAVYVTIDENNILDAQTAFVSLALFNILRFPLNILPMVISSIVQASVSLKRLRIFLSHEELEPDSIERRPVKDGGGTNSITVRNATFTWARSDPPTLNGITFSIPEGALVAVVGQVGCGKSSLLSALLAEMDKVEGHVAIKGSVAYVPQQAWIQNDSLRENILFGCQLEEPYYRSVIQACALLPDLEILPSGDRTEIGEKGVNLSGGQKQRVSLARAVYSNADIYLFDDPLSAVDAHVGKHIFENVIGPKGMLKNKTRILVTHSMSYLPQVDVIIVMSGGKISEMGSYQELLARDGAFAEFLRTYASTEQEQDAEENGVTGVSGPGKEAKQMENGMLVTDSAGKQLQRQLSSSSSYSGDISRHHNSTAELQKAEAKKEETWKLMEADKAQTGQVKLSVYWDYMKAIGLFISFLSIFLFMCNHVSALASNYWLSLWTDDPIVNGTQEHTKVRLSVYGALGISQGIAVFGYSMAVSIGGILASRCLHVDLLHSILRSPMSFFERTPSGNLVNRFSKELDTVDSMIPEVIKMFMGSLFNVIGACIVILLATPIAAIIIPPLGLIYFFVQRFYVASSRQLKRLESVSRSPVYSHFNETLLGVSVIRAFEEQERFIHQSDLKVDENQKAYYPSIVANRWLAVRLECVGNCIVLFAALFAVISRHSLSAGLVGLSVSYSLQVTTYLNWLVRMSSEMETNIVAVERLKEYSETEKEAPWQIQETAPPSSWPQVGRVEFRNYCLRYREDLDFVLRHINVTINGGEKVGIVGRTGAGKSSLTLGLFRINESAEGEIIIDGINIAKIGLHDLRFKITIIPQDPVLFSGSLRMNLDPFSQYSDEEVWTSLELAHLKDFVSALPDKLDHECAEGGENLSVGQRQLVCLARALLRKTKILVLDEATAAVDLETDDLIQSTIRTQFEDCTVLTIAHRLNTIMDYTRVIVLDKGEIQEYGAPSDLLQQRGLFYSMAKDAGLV

As to `O=C(O)c1ccc(C(=O)O)c(-c2c3cc(Cl)c(=O)cc-3oc3cc(O)c(Cl)cc23)c1.O=C(O)c1cccc(C(=O)O)c1-c1c2cc(Cl)c(=O)cc-2oc2cc(O)c(Cl)cc12`, the Activity entry is “substrate [+]”.
